Measurements as given in patent US5576438A, “Isoserine derivatives and their use as leukotriene antagonists” (Leo Pharmaceutical Products Ltd. A/S (L.o slashed.vens …, priority 1992, dated 1996).
Where a name gives a salt, the structure may show the parent alone. Read-outs that look alike come from different tables or passages of the source.

Biological target: T1, LTD4 receptor (Cavia porcellus, UniProt Q2NNR5)
T1 construct: guinea-pig lung membranes; from tissue; host or cells: guinea-pig lung membranes
T1 sequence (Q2NNR5 1-340): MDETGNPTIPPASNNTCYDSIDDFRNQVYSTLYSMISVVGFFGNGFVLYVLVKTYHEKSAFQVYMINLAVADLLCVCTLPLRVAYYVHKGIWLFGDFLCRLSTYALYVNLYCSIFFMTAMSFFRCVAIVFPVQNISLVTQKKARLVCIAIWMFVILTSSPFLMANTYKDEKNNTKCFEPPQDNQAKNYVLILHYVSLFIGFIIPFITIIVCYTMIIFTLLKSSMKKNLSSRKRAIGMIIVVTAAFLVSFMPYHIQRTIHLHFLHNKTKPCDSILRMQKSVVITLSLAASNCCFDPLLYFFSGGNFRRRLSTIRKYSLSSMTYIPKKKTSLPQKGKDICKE
Test: [3H]LTD4 competition binding to guinea-pig lung membranes
Conditions: negative logarithm of molar concentration, read-out: pIC50 for [3H]LTD4 binding (converted)
Source text: It is of importance to investigate the receptor binding properties of leukotriene antagonists in relation to their inhibition of smooth muscle contraction. Receptor binding studies may be performed with guinea-pig lung membranes in a direct competition assay between a leukotriene antagonist and [^3 H]LTD4 for binding to the LTD4 receptor ^10,^11. […] These values indicate that the affinities of the compounds for the LTD4 receptor are very high, also in the presence of albumin.

[1] = presence of 0.1% human serum albumin

## O=C(O)[C@H](O)[C@H](Nc1cccc(/C=C/c2ccc3ccc(Cl)cc3n2)c1)c1ccccc1 (relative stereo) [Example 6, E-(2R,3R;2S,3S)-N-3-[2-(7-chloroquinolyl)-2-ethenyl]-phenyl-3-phenyl isoserine, sodium salt]
Absence of human serum albumin
  IC50: 2 nM
[1]
  IC50: 6.31 nM

## O=C(O)[C@H](O)[C@H](Nc1cccc(/C=C/c2ccc3ccccc3n2)c1)c1ccccc1 (relative stereo) [Example 17, E-(2R,3R;2S,3S)-3-phenyl-N-3-[(2-quinolyl)-2-ethenyl]-phenyl isoserine, sodium salt]
Absence of human serum albumin
  IC50: 2.51 nM
[1]
  IC50: 20 nM
